Experimental data from patent publication US6399349B1, “Human aminopeptidase P gene” (priority 1997, dated 2002).
Like-named read-outs stand apart in the source and are kept apart here. Where no end group is shown, it is not given here. [ ]: non-standard residue; d: D form. Hyp = O=C(O)[C@@H]1C[C@@H](O)CN1

Key:
AmP and ACE = assay: Mean systemic arterial blood pressure effects of BK injected i.v. or i.a. (log dose-response curves)
Protocol: To the extent that pulmonary AmP contributes to BK inactivation, saturation of AmP with an inhibitor or alternative substrate should, in effect, potentiate blood pressure effects of i.v. BK.
To clarify relative contributions of ACE and AmP to the metabolic fate of BK administered i.v., blood pressure effects of i.v. BK under control conditions and then after administration of a long-acting ACE inhibitor, RAC-X-65, were compared. After ACE inhibition, BK was injected (i.v. and i.a.) alone or BK co-mixed with APPBz at a dose capable of saturating AmP (2 μmol/kg).

[1] = target: T1, pulmonary endothelial AmP (Rattus norvegicus, UniProt Q99MA2); conditions: coinjected with tracer APPBz-3H
T1 sequence (Q99MA2 23-650): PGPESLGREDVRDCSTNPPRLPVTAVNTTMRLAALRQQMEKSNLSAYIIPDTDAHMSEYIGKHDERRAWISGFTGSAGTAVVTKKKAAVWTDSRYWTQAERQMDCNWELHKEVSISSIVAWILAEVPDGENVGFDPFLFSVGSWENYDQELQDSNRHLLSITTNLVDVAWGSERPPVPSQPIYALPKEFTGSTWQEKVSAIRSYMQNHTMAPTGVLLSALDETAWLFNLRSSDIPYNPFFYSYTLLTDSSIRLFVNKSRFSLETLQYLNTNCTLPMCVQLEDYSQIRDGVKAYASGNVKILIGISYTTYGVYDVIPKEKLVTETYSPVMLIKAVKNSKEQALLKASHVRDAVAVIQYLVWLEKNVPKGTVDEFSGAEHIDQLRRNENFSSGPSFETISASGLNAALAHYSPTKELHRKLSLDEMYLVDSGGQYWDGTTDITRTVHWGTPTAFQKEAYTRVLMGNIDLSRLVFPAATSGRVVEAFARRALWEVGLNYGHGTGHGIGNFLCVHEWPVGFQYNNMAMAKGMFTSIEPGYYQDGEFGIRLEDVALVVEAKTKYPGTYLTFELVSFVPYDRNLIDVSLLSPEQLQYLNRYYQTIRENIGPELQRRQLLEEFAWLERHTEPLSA
Protocol: (§1) The immediate metabolic fate of the AmP synthetic substrate Arg-Pro-Pro-[^3H]benzylamide (APPBz-^3H) (20 Ci/mmol) during a single transit from the right heart to the left was examined. Effects of increasing quantities of carrier APPBz and alternative AmP substrates such as bradykinin (BK) and des-Arg^9-BK (31) were then measured.

AmP = conditions: cited from earlier work
[2] = target: rat lung aminopeptidase P (rat) (UniProt Q99MA2); assay: cell-based or functional assay
[3] = target: T1, pulmonary endothelial AmP; assay: in vivo; conditions: read-out: ED50: coinjected dose that reduces hydrolysis of APPBz-3H by half
Protocol: as §1

[4] = 2-3 sec, right to left side of the heart; cited from earlier work
Pig kidney AmP = target: T2, Pig kidney AmP (Sus scrofa, UniProt Q95333); conditions: concentration that derivatizes two H residues per molecule of AmP; cited from earlier work
T2 construct: host or cells: pig kidney
T2 sequence (Q95333 22-649): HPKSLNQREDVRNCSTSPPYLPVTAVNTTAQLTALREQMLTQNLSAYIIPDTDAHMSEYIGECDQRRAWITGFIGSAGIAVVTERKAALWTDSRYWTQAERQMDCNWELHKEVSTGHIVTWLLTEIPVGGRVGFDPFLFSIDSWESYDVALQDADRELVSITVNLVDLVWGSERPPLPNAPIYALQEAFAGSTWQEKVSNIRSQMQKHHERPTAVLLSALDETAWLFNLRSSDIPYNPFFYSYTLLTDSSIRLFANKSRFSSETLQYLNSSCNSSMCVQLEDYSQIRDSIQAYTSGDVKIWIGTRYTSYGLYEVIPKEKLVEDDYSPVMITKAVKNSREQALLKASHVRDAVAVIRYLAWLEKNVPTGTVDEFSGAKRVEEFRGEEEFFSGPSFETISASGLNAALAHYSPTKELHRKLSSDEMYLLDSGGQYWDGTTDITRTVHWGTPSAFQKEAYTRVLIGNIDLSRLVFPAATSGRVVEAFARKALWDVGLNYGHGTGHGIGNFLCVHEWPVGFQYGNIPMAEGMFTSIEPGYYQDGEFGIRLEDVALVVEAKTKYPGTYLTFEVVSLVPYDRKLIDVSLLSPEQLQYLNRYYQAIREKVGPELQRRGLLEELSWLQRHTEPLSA

guinea pig serum AmP = conditions: in vitro; cited from earlier work

C[C@H](N[C@@H](CCC(=O)Nc1ccccc1)C(=O)O)C(=O)N1CCC[C@H]1C(=O)O (racemic) [RAC-X-65]
factor by which i.v. BK curves lay to the right of i.a. curves after ACE inhibition (AmP and ACE; after ACE inhibition): about four | effect of ACE inhibition on BK log dose-response curves (AmP and ACE; long-acting ACE inhibitor, BK i.v. and i.a.): shifted both i.v. and i.a. log dose-response curves leftward

des-Arg^1-BK: BK fragment formed by AmP; not a substrate but binds to the catalytic site (PPGFSPFR)
ED50: coinjected dose that reduces hydrolysis of APPBz-3H by half [1]: 30 nmol/kg | affinity for AmP relative to BK (AmP): as great an affinity for AmP as BK itself

des-Arg^9-bradykinin (peptide)
ED50 for inhibition of the hydrolysis of coinjected APPBz-^3H in vivo [2]: 107 nmol/kg

RPPGFSPFR [BK, Arg-Pro-Pro-Gly-Phe-Ser-Pro-Phe-Arg]
ED50 [3]: 0.013 µmol/kg | number of half-lifes BK is degraded through in a single transit [4]: 5-8 half-lifes | degradation of BK by AmP alone (AmP and ACE; computed from 4-fold potentiation, PF=2^n, less than three sec): 75%

CCOC(=O)OC(=O)OCC [diethylpyrocarbonate]
inactivation of pig kidney AmP (Pig kidney AmP): completely inactivated

Gly-Pro-Hyp-Gly-Ala-Gly (GP[Hyp]GAG) [AAP, putative hormone called antiarrhythmic peptide]
binding of AAP by AmP (guinea pig serum AmP): high affinity

NC(=O)CI [iodoacetamide]
inhibition of AmP (AmP): not inhibited

Arg-Pro-Pro-benzylamide (peptide)
dose that completely inhibits the hydrolysis of coinjected APPBz-^3H [2]: 2 µmol/kg | dose that reduces by half the fractional hydrolysis of coinjected APPBz-^3H in a single pulmonary transit in vivo [2]: 42 nmol/kg b.w.

bradykinin (peptide)
dose that reduces by half the hydrolysis of coinjected APPBz-^3H in vivo [2]: 13 nmol/kg

CCN1C(=O)C=CC1=O [N-ethylmaleimide]
inhibition of AmP (AmP): not inhibited

des-Arg^9-BK: alternative AmP substrate, bradykinin lacking Arg9 (RPPGFSPF)
ED50: coinjected dose that reduces hydrolysis of APPBz-3H by half [1]: 107 nmol/kg

O=C(O)c1cc[c]([Hg+])cc1.[OH-] [p-hydroxy-mercuribenzoate]
inhibition of AmP (AmP; low concentration (~10 nM)): ~70%
